Measured values as given in patent publication US9045482B2, “Pyrido[4,3-B]indoles and methods of use” (Medivation Technologies, Inc., priority 2009, dated 2015).

Legend:
[1] = target: human recombinant serotonin (5-Hydroxytryptamine) 5-HT7 receptor (Homo sapiens, UniProt P34969); assay: Serotonin 5-HT7 radioligand binding ([3H]LSD); conditions: 0.1 μM ligand concentration
Procedure: Compounds of invention were incubated with 5.5 nM [^3H]Lysergic acid diethylamide (LSD) for 2 h at 25° C. […] Receptor proteins were filtered and washed, the filters were then counted to determine [^3H]LSD specifically bound. Compounds were screened at 1 μM or lower, using 1% DMSO as vehicle. Biochemical assay results are presented as the percent inhibition of specific binding in Table 4.

[2] = target: human recombinant dopamine D2L receptor (Homo sapiens, UniProt P14416); assay: Dopamine D2L radioligand binding ([3H]Spiperone)
Procedure: To evaluate in radioligand binding assays the activity of compounds of the invention, human recombinant dopamine D2L receptor expressed in Chinese hamster ovary (CHO) cells [Grandy, D. K. et al., Proc. Natl. Acad. Sci. USA. (1989), 86:9762; Hayes, G. et al., Mol. Endocrinol. […] Compounds of the invention were incubated with 0.16 nM [^3H]Spiperone for 120 min at 25° C. Non-specific binding was estimated in the presence of 10 μM Haloperidol. Receptor proteins were filtered and washed, the filters were then counted to determine [^3H]Spiperone specifically bound. Compounds were screened at 1 μM or lower, using 1% DMSO as vehicle. Biochemical assay results are presented as the percent inhibition of specific binding in Table 3.

[3] = target: T1, human recombinant serotonin (5-Hydroxytryptamine) 5-HT5A receptor (Homo sapiens, UniProt P47898); assay: Serotonin 5-HT5A radioligand binding ([3H]LSD); conditions: 0.1 μM ligand concentration
T1 construct: expressed in transfected cells; host or cells: Chinese hamster ovary (CHO-K1) cells
Procedure: (§1) Compounds of the invention were incubated with 1.7 nM [^3H]Lysergic acid diethylamide (LSD) for 60 min at 37° C. […] Receptor proteins were filtered and washed, the filters were then counted to determine [^3H]LSD specifically bound. Compounds were screened at 1 μM or lower, using 1% DMSO as vehicle. Biochemical assay results are presented as the percent inhibition of specific binding in Table 4.

[4] = target: T2, human recombinant serotonin (5-Hydroxytryptamine) 5-HT6 receptor (Homo sapiens, UniProt P50406); assay: Serotonin 5-HT6 radioligand binding ([3H]LSD)
T2 construct: expressed in transfected cells; host or cells: human HeLa cells
Procedure: as §1, with “1.5” for “1.7”, “[3H]Lysergic” for “[^3H]Lysergic”, “120” for “60”, “[3H]LSD” for “[^3H]LSD”

[5] = target: T3, human recombinant serotonin (5-Hydroxytryptamine) 5-HT2A receptor (Homo sapiens, UniProt P28223); assay: Serotonin 5-HT2A radioligand binding ([3H]Ketanserin)
T3 construct: expressed in transfected cells; host or cells: Chinese hamster ovary (CHO-K1) cells
Procedure: (1997), 68:1998] in a 50 mM Tris-HCl buffer, pH 7.4, was used. Compounds of the invention were incubated with 0.5 nM [^3H]Ketanserin for 60 min at 25° C. Non-specific binding was estimated in the presence of 1 μM Mianserin. Receptor proteins were filtered and washed, the filters were then counted to determine [^3H]Ketanserin specifically bound. Compounds were screened at 1 μM or lower, using 1% DMSO as vehicle. Biochemical assay results are presented as the percent inhibition of specific binding in Table 4.

[6] = target: T4, human recombinant adrenergic α2B receptor (Homo sapiens, UniProt P18089); assay: Adrenergic α2B radioligand binding ([3H]Rauwolscine)
T4 construct: expressed in transfected cells; host or cells: Chinese hamster ovary (CHO-K1) cells
T4 sequence (P18089 1-450): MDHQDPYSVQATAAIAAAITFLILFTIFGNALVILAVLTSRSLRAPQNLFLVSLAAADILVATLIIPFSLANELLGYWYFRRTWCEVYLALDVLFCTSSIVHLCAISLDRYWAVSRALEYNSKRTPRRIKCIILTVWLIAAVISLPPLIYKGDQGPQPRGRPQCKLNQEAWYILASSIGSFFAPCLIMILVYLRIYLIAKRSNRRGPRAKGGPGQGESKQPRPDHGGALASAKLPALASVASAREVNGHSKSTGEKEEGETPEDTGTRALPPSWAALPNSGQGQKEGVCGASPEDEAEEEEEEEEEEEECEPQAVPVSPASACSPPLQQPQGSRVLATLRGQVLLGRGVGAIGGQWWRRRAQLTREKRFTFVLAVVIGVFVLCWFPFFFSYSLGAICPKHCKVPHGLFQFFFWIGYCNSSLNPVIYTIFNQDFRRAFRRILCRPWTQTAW
Procedure: To evaluate in radioligand binding assays the activity of compounds of the invention, human recombinant adrenergic α2B receptor expressed in Chinese hamster ovary (CHO-K1) cells [Uhlen, S. et al., Eur. J. Pharmacol. (1998), 343(1):93] in a modified Tris-HCl buffer (50 mM Tris-HCl, pH 7.4, 12.5 mM MgCl2, 1 mM EDTA, 0.2% BSA) was used. Compounds of the invention were incubated with 2.5 nM [^3H]Rauwolscine for 60 min at 25° C. Non-specific binding was estimated in the presence of 10 μM Prozosin. Receptor proteins were filtered and washed, the filters were then counted to determine [^3H]Rauwolscine specifically bound. Compounds were screened at 1 μM or lower, using 1% DMSO as vehicle. Compounds of the invention were tested in this biochemical assay. Biochemical assay results for representative compounds were presented as the percent inhibition of specific binding in Table 3.

human recombinant serotonin (5-Hydroxytryptamine) 5-HT7 receptor, sequence (P34969 whole entry): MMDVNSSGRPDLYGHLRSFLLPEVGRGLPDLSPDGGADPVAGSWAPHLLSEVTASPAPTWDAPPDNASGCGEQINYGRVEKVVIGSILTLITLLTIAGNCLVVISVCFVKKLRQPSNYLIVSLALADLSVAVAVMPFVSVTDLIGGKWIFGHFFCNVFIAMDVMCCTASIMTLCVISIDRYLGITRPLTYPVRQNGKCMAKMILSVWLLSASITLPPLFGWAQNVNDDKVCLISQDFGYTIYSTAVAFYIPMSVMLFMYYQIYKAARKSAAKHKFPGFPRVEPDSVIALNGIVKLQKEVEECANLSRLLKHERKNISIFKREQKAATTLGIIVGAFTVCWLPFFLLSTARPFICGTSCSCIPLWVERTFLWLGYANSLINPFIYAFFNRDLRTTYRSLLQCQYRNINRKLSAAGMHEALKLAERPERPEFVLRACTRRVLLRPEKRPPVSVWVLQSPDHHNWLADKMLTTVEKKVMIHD
T2 sequence (P50406 whole entry): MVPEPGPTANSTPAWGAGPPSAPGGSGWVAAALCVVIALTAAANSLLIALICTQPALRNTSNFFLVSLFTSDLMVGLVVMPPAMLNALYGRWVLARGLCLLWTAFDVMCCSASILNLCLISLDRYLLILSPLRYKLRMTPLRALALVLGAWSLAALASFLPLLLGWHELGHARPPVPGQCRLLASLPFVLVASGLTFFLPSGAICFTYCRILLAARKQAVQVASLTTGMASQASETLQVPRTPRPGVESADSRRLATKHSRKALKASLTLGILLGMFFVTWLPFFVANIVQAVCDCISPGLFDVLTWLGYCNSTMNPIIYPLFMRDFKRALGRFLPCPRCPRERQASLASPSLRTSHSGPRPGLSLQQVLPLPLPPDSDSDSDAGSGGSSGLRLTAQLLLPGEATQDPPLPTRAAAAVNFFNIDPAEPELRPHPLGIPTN
T3 sequence (P28223 whole entry): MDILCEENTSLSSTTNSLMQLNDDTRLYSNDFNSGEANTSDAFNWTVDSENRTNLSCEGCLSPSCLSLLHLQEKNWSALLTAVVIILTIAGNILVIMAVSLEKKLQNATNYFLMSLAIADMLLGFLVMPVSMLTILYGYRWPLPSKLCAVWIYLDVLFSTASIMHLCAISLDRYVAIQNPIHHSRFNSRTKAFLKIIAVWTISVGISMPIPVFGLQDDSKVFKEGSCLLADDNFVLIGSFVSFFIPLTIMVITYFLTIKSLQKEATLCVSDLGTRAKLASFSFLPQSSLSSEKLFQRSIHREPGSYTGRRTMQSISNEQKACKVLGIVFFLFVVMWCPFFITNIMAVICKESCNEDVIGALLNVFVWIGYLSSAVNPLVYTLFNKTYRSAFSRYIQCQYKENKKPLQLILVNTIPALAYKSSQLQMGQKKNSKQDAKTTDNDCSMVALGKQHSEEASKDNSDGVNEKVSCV
human recombinant dopamine D2L receptor, sequence (P14416 whole entry): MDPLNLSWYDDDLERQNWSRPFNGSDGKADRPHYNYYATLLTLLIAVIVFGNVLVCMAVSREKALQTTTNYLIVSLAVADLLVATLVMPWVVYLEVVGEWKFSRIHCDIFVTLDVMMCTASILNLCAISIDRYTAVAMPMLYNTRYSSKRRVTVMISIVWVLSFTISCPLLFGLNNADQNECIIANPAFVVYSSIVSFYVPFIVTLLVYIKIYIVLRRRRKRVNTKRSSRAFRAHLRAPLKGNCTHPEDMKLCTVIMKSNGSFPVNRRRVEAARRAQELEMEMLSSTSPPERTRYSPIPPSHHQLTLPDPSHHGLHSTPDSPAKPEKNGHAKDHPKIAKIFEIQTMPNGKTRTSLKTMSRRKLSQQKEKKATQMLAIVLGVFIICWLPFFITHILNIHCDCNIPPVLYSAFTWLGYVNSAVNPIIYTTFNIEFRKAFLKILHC
T1 sequence (P47898 whole entry): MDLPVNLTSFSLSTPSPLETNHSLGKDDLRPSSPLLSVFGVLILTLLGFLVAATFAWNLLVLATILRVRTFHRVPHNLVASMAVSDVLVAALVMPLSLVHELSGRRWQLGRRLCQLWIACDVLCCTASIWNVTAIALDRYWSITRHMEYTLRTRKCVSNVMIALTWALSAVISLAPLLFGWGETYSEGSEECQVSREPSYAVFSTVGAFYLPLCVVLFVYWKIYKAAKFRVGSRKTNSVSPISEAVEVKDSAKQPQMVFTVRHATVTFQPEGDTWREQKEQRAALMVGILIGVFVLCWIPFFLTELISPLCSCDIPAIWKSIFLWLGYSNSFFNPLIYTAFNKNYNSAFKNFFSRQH

Q: Which “Percent Inhibition of ligand binding Serotonin 5-HT7” value [1] does the source give for Cc1cnc2c(c1)c1c(n2CCc2ccc(C)nc2)CC2CCCN2C1 (stereo not drawn) [Compound 36, 3-methyl-11-(2-(6-methylpyridin-3-yl)ethyl)-7,8,9,9a,10,11-hexahydro-5H-pyrido[3′,2′:4,5]pyrrolo[3,2-f]indolizine] here?
A: 23%

Q: And the “Percent Inhibition of ligand binding Dopamine D2L” value ([2]; 0.1 μM ligand conc.)?
A: −3%

Q: And the “Percent Inhibition of ligand binding Serotonin 5-HT5A” value [3]?
A: 25%

Q: What about the “Percent Inhibition of ligand binding Serotonin 5-HT6” value ([4]; 0.1 μM ligand concentration) of the same compound?
A: 34%

Q: What about the “Percent Inhibition of ligand binding Serotonin 5-HT2A” value ([5]; 0.1 μM ligand concentration) of the same compound?
A: 35%

Q: Which results are given for C/C(=C\n1c2c(c3cc(C)ccc31)C1CCCN1CC2)c1ccc(C)nc1 (stereo not drawn) [Compound 32, (E)-10-methyl-7-(2-(6-methylpyridin-3-yl)prop-1-enyl)-2,3,5,6,7,11c-hexahydro-1H-indolizino[7,8-b]indole]?
A: Percent Inhibition of ligand binding Serotonin 5-HT7 [1]: 61%; Percent Inhibition of ligand binding Dopamine D2L ([2]; 0.1 μM ligand conc.): 3%; Percent Inhibition of ligand binding Serotonin 5-HT5A [3]: 24%; Percent Inhibition of ligand binding Serotonin 5-HT6 ([4]; 0.1 μM ligand concentration): 25%; Percent Inhibition of ligand binding Serotonin 5-HT2A ([5]; 0.1 μM ligand concentration): 50%

Q: How did the “Percent Inhibition of ligand binding Serotonin 5-HT7” value [1] turn out when Cc1ccc(CCn2c3c(c4cccnc42)CN2CCCC2C3)cn1 (stereo not drawn) [Compound 35, 11-(2-(6-methylpyridin-3-yl)ethyl)-7,8,9,9a,10,11-hexahydro-5H-pyrido[3′,2′:4,5]pyrrolo[3,2-f]indolizine] was run?
A: 6%

Q: And the “Percent Inhibition of ligand binding Dopamine D2L” value ([2]; 0.1 μM ligand conc.)?
A: −3%

Q: What about the “Percent Inhibition of ligand binding Serotonin 5-HT5A” value [3] of the same compound?
A: 10%

Q: And the “Percent Inhibition of ligand binding Serotonin 5-HT6” value ([4]; 0.1 μM ligand concentration)?
A: −3%

Q: And the “Percent Inhibition of ligand binding Serotonin 5-HT2A” value ([5]; 0.1 μM ligand concentration)?
A: 31%

Q: Which “Percent Inhibition of ligand binding Adrenergic α2B” value ([6]; 1 μM ligand conc.) does the source give for Fc1ccc(CCn2c3c(c4cc(Cl)ccc42)CN2CCCC2C3)cc1 (stereo not drawn) [Compound 2, 10-(4-fluorophenethyl)-7-chloro-2,3,5,10,11,11a-hexahydro-1H-indolizino[7,6-b]indole] here?
A: 51%

Q: And the “Percent Inhibition of ligand binding Dopamine D2L” value ([2]; 1 μM ligand conc.)?
A: 13%

Q: What about the “Percent Inhibition of ligand binding Serotonin 5-HT6” value ([4]; 1 μM ligand concentration) of the same compound?
A: 19%

Q: And the “Percent Inhibition of ligand binding Serotonin 5-HT2A” value ([5]; 1 μM ligand concentration)?
A: 41%

Q: What does the source list for Cc1cnc2c(c1)c1c(n2CCc2ccc(C)nc2)CCN2CCCC12 (stereo not drawn) [Compound 33, 10-methyl-7-(2-(6-methylpyridin-3-yl)ethyl)-2,3,5,6,7,1c-hexahydro-1H-pyrido[3′,2′:4,5]pyrrolo[2,3-g]indolizine]?
A: Percent Inhibition of ligand binding Serotonin 5-HT7 [1]: 44%; Percent Inhibition of ligand binding Dopamine D2L ([2]; 0.1 μM ligand conc.): 1%; Percent Inhibition of ligand binding Serotonin 5-HT5A [3]: 0%; Percent Inhibition of ligand binding Serotonin 5-HT6 ([4]; 0.1 μM ligand concentration): 20%; Percent Inhibition of ligand binding Serotonin 5-HT2A ([5]; 0.1 μM ligand concentration): 29%

Q: How did the “Percent Inhibition of ligand binding Serotonin 5-HT7” value [1] turn out when Cc1ccc(CCn2c3c(c4cccnc42)C2CCCN2CC3)cn1 (stereo not drawn) [Compound 34, 7-(2-(6-methylpyridin-3-yl)ethyl)-2,3,5,6,7,1c-hexahydro-1H-pyrido[3′,2′:4,5]pyrrolo[2,3-g]indolizine] was run?
A: 18%

Q: What about the “Percent Inhibition of ligand binding Dopamine D2L” value ([2]; 0.1 μM ligand conc.) of the same compound?
A: 6%

Q: What about the “Percent Inhibition of ligand binding Serotonin 5-HT5A” value [3] of the same compound?
A: 6%

Q: And the “Percent Inhibition of ligand binding Serotonin 5-HT6” value ([4]; 0.1 μM ligand concentration)?
A: 5%

Q: What about the “Percent Inhibition of ligand binding Serotonin 5-HT2A” value ([5]; 0.1 μM ligand concentration) of the same compound?
A: 15%

Q: Which results are given for O=C(Cn1c2c(c3cccnc31)C1CCCN1CC2)N1CCCCC1 (stereo not drawn) [Compound 38, 1-(piperidin-1-yl)-2-(2,3,5,6-tetrahydro-1H-pyrido[3′,2′:4,5]pyrrolo[2,3-g]indolizin-7(11cH)-yl)ethanone]?
A: Percent Inhibition of ligand binding Serotonin 5-HT7 [1]: 23%; Percent Inhibition of ligand binding Adrenergic α2B ([6]; 0.1 μM ligand conc.): 30%; Percent Inhibition of ligand binding Dopamine D2L ([2]; 0.1 μM ligand conc.): 24%; Percent Inhibition of ligand binding Serotonin 5-HT5A [3]: 8%; Percent Inhibition of ligand binding Serotonin 5-HT6 ([4]; 0.1 μM ligand concentration): −8%; Percent Inhibition of ligand binding Serotonin 5-HT2A ([5]; 0.1 μM ligand concentration): 19%

Q: Which results are given for Fc1ccc(CCn2c3c(c4cc(Cl)ccc42)C2CCCN2CC3)cc1 (stereo not drawn) [Compound 1, 7-(4-fluorophenethyl)-10-chloro-2,3,5,6,7,11c-hexahydro-1H-indolizino[7,8-b]indole]?
A: Percent Inhibition of ligand binding Adrenergic α2B ([6]; 1 μM ligand conc.): 55%; Percent Inhibition of ligand binding Dopamine D2L ([2]; 1 μM ligand conc.): 9%; Percent Inhibition of ligand binding Serotonin 5-HT6 ([4]; 1 μM ligand concentration): 19%; Percent Inhibition of ligand binding Serotonin 5-HT2A ([5]; 1 μM ligand concentration): 11%

Q: O=C(Cn1c2c(c3cccnc31)CN1CCCC1C2)N1CCCCC1 (stereo not drawn) [Compound 37, 1-(piperidin-1-yl)-2-(8,9,9a,10-tetrahydro-5H-pyrido[3′,2′:4,5]pyrrolo[3,2-f]indolizin-11(7H)-yl)ethanone] was tested. Which “Percent Inhibition of ligand binding Serotonin 5-HT7” value [1] did it give?
A: 3%

Q: What about the “Percent Inhibition of ligand binding Adrenergic α2B” value ([6]; 0.1 μM ligand conc.) of the same compound?
A: 40%

Q: And the “Percent Inhibition of ligand binding Dopamine D2L” value ([2]; 0.1 μM ligand conc.)?
A: −5%

Q: What about the “Percent Inhibition of ligand binding Serotonin 5-HT5A” value [3] of the same compound?
A: 8%

Q: What about the “Percent Inhibition of ligand binding Serotonin 5-HT6” value ([4]; 0.1 μM ligand concentration) of the same compound?
A: −9%

Q: And the “Percent Inhibition of ligand binding Serotonin 5-HT2A” value ([5]; 0.1 μM ligand concentration)?
A: 33%
